Data on 2 molecules can be found in EP0065513B1, “ANTIMYCOTIC SYNERGISTIC PHARMACEUTICAL COMPOSITIONS AND PROCESS FOR THE PREPARATION THEREOF” (CHINOIN Gyogyszer és Vegyészeti Termékek Gyára RT., priority 1980, dated 1982).

For test [1], the system named is vulvovaginitis candidomycetica. Nature of the test: In vivo test: treatment of patients with suppositories. As to conditions: patients with vulvovaginitis candidomycetica treated with suppositories; number of patients 35. The method, then:
Patients suffering of vulvovaginitis candidomycetica are treated with suppositories according to Example 1. As control suppositories containing no 2-methyl-1,4-naphthoquinone-sodium sulfite adduct but nystatin only are used. Number of patients 35.

The next test has as its system Candida albicans. Nature of the test: In vitro growth inhibition test in liquid nutrient medium. The format is cell-based. The method, then:
(§1) Candida albicans and Trichomonas vaginalis strains are cultured in a liquid nutrient medium. Incubation is carried out at 37°C for 48 hours. Each nutrient medium (10 ml) is inoculated with 1000 germs per ml. The number of germs is determined in a Burker chamber. Dilution series are prepared from the stock inoculum by using a physiological sodium chloride solution. To the mixture of the nutrient medium and 0.5 ml a physiological sodium chloride solution 2-methyl-1,4-naphthoquinone, nystatin and mixtures thereof are added.
(§2) The minimal inhibitory concentration of nystatin is determined in the manner disclosed above.
(§3) 1.25 mg/10 ml of 2-methyl-1,4-naphthoquinone is added to an amount of nystatin being the one fiftieth (1/50) part of the minimal inhibitory concentration. Complete inhibition of the growth of Candida albicans and Trichomonas vaginalis was observed.

Another test has as its system Trichomonas vaginalis. Described as above. It is filed as cell-based. The method, then: as §1, §2, §3
Setting [2] is: concentration smaller than 5 mg/10 ml.
Setting [3] is: liquid nutrient medium 10 ml, 1000 germs per ml, 37°C, 48 hours.

For the molecule `C[C@@H]1[C@H](O)[C@@H](C)/C=C/C=C/CC/C=C/C=C/C=C/C=C/C(O[C@H]2O[C@H](C)[C@@H](O)[C@H](N)[C@@H]2O)CC2O[C@](O)(CC(O)C(O)CCC(O)CC(O)CC(O)CC(=O)O[C@H]1C)CC(O)C2C(=O)O` (some centres unmarked) [Nystatin], the “Recovery, in % of the cases” value in test [1] was found to be 66%.

For the molecule `CC1=CC(=O)c2ccccc2C1=O` [2-methyl-1,4-naphthoquinone], the “activity at a smaller concentration than the minimal inhibitory concentration” value with Candida albicans (setting [2]) and in the test with Trichomonas vaginalis (setting [2]) was “completely inactive” in each case. Further, the minimal inhibitory concentration in the test on Candida albicans (setting [3]) and in the test with Trichomonas vaginalis (setting [3]) was 5 mg/10 ml throughout.
